{
  "source": "PubChem BioAssay AID1259409",
  "about": "(Chemical Carcinogenesis Research Information System (CCRIS), 2018)",
  "origin": "cited, not measured here",
  "system": "rodent chemically induced tumor inhibition, incidence and multiplicity",
  "assay": "CCRIS tumor inhibitor studies",
  "data": [
    {"compound": "C[C@]12CC[C@H](O)CC1=CC[C@@H]1[C@@H]2CC[C@]2(C)C(=O)CC[C@@H]12", "values": [
      {"measurement": "tumour outcome (control, treated, inhibition, significance)", "setting": "Carcinogen: N-METHYL-N-NITROSOUREA, 684-93-5, Dose [Inhibitor]: 0, 5 PPM IN DIET FOR DURATION OF STUDY BEGINNING 1 WK PRIOR TO CARCINOGEN DOSE (STUDY DURATION: 109 D), Route [Inhibitor]: ORAL, Species: RAT, Strain/Sex: SPRAGUE-DAWLEY/FEMALE, Target Tissue: Type of Lesion: MAMMARY GLAND: TUMOR, Dose [Carcinogen]: 50 MG/KG BW IN ACIDIFIED SALINE (PH 5.0) ONCE, Promoter: NONE USED", "value": "100%, 89%, 11%, not calculated"},
      {"measurement": "tumour outcome (control, treated, inhibition, significance)", "setting": "Carcinogen: N-METHYL-N-NITROSOUREA, 684-93-5, Dose [Inhibitor]: 0, 24 PPM IN DIET FOR DURATION OF STUDY BEGINNING 1 WK PRIOR TO CARCINOGEN DOSE (STUDY DURATION: 109 D), Route [Inhibitor]: ORAL, Species: RAT, Strain/Sex: SPRAGUE-DAWLEY/FEMALE, Target Tissue: Type of Lesion: MAMMARY GLAND: TUMOR, Dose [Carcinogen]: 50 MG/KG BW IN ACIDIFIED SALINE (PH 5.0) ONCE, Promoter: NONE USED", "value": "100%, 80%, 20%, not calculated"},
      {"measurement": "tumour outcome (control, treated, inhibition, significance)", "setting": "Carcinogen: N-METHYL-N-NITROSOUREA, 684-93-5, Dose [Inhibitor]: 0, 120 PPM IN DIET FOR DURATION OF STUDY BEGINNING 1 WK PRIOR TO CARCINOGEN DOSE (STUDY DURATION: 109 D), Route [Inhibitor]: ORAL, Species: RAT, Strain/Sex: SPRAGUE-DAWLEY/FEMALE, Target Tissue: Type of Lesion: MAMMARY GLAND: TUMOR, Dose [Carcinogen]: 50 MG/KG BW IN ACIDIFIED SALINE (PH 5.0) ONCE, Promoter: NONE USED", "value": "100%, 80%, 20%, not calculated"},
      {"measurement": "tumour outcome (control, treated, inhibition, significance)", "setting": "Carcinogen: N-METHYL-N-NITROSOUREA, 684-93-5, Dose [Inhibitor]: 0, 400 MG/KG DIET FOR DURATION OF STUDY BEGINNING 1 WK PRIOR TO CARCINOGEN DOSE (STUDY DURATION: 187 D), Route [Inhibitor]: ORAL, Species: RAT, Strain/Sex: SPRAGUE-DAWLEY/FEMALE, Target Tissue: Type of Lesion: MAMMARY GLAND: TUMOR, Dose [Carcinogen]: 35 MG/KG BW ONCE, Promoter: NONE USED", "value": "85%, 0%, 100%, p<0.01"},
      {"measurement": "tumour outcome (control, treated, inhibition, significance)", "setting": "Carcinogen: N-METHYL-N-NITROSOUREA, 684-93-5, Dose [Inhibitor]: 0, 600 PPM IN DIET FOR DURATION OF STUDY BEGINNING 1 WK PRIOR TO CARCINOGEN DOSE (STUDY DURATION: 109 D), Route [Inhibitor]: ORAL, Species: RAT, Strain/Sex: SPRAGUE-DAWLEY/FEMALE, Target Tissue: Type of Lesion: MAMMARY GLAND: TUMOR, Dose [Carcinogen]: 50 MG/KG BW IN ACIDIFIED SALINE (PH 5.0) ONCE, Promoter: NONE USED", "value": "100%, 40%, 60%, not calculated"},
      {"measurement": "tumour outcome (control, treated, inhibition, significance)", "setting": "Carcinogen: N-METHYL-N-NITROSOUREA, 684-93-5, Dose [Inhibitor]: 0, 800 MG/KG DIET FOR DURATION OF STUDY BEGINNING 1 WK PRIOR TO CARCINOGEN DOSE (STUDY DURATION: 187 D), Route [Inhibitor]: ORAL, Species: RAT, Strain/Sex: SPRAGUE-DAWLEY/FEMALE, Target Tissue: Type of Lesion: MAMMARY GLAND: TUMOR, Dose [Carcinogen]: 35 MG/KG BW ONCE, Promoter: NONE USED", "value": "70%, 0%, 100%, p<0.01"},
      {"measurement": "tumour outcome (control, treated, inhibition, significance)", "setting": "Carcinogen: N-NITROSOMORPHOLINE, 59-89-2, Dose [Inhibitor]: 0.25% IN DIET (STUDY DURATION: 51 WK), Route [Inhibitor]: ORAL, Species: RAT, Strain/Sex: SPRAGUE-DAWLEY/MALE, Target Tissue: Type of Lesion: LIVER: HEMANGIOSARCOMA, Dose [Carcinogen]: 120 MG/L IN DRINKING WATER FOR FIRST 7 WK OF STUDY, Promoter: NONE USED", "value": "8/35 (23%), 1/35 (3%), 88%, p<0.05"},
      {"measurement": "tumour outcome (control, treated, inhibition, significance)", "setting": "Carcinogen: N-NITROSOMORPHOLINE, 59-89-2, Dose [Inhibitor]: 0.25% IN DIET (STUDY DURATION: 51 WK), Route [Inhibitor]: ORAL, Species: RAT, Strain/Sex: SPRAGUE-DAWLEY/MALE, Target Tissue: Type of Lesion: LIVER: HEPATOCELLULAR ADENOMA, MIXED CELL, Dose [Carcinogen]: 120 MG/L IN DRINKING WATER FOR FIRST 7 WK OF STUDY, Promoter: NONE USED", "value": "32/35 (91%), 28/35 (80%), 14%, not calculated"},
      {"measurement": "tumour outcome (control, treated, inhibition, significance)", "setting": "Carcinogen: N-NITROSOMORPHOLINE, 59-89-2, Dose [Inhibitor]: 0.25% IN DIET (STUDY DURATION: 51 WK), Route [Inhibitor]: ORAL, Species: RAT, Strain/Sex: SPRAGUE-DAWLEY/MALE, Target Tissue: Type of Lesion: LIVER: HEPATOCELLULAR CARCINOMA, Dose [Carcinogen]: 120 MG/L IN DRINKING WATER FOR FIRST 7 WK OF STUDY, Promoter: NONE USED", "value": "33%, 20%, 39%, not calculated"},
      {"measurement": "tumour outcome (control, treated, inhibition, significance)", "setting": "Carcinogen: N-methyl-N-nitrosourea, 684-93-5, Dose [Inhibitor]: 125 mg/kg in diet for 6 wks starting 6 wks after administration of carcinogen, Route [Inhibitor]: Oral, Species: Rat, Strain/Sex: Sprague Dawley/Female, Target Tissue: Type of Lesion: Mammary gland: tumors, Dose [Carcinogen]: 50 mg/kg injected once in 50 d old mice, tumors allowed to develop for 6 wks before inhibitor administration (Test mater, Promoter: None used", "value": "93.3%, 96.7%, -0.03%, not significant"},
      {"measurement": "tumour outcome (control, treated, inhibition, significance)", "setting": "Carcinogen: N-methyl-N-nitrosourea, 684-93-5, Dose [Inhibitor]: 1000 mg/kg in diet for 6 wks starting 6 wks after administration of carcinogen, Route [Inhibitor]: Oral, Species: Rat, Strain/Sex: Sprague Dawley/Female, Target Tissue: Type of Lesion: Mammary gland: tumors, Dose [Carcinogen]: 50 mg/kg injected once in 50 d old mice, tumors allowed to develop for 6 wks before inhibitor administration (Test mater, Promoter: None used", "value": "93.3%, 76.7%, 17.8%, not significant"},
      {"measurement": "tumour outcome (control, treated, inhibition, significance)", "setting": "Carcinogen: NONE USED, Dose [Inhibitor]: 0, 0.45% IN DIET FOR DURATION OF STUDY (STUDY DURATION: 84 WK), Route [Inhibitor]: ORAL, Species: RAT, Strain/Sex: F344/MALE, Target Tissue: Type of Lesion: TESTES: LEYDIG CELL TUMOR, Promoter: NONE USED", "value": "8/8 (100%), 0/13 (0%), 100%, p<0.005"},
      {"measurement": "tumour outcome (control, treated, inhibition, significance)", "setting": "Carcinogen: NONE USED, Dose [Inhibitor]: 450 MG/KG IN SESAME OIL 3/WK BEGINNING AT 5-6 WK OF AGE AND CONTINUING FOR DURATION OF STUDY (STUDY DURATION: 18 MO), Route [Inhibitor]: INTRAGASTRIC, Species: MOUSE, Strain/Sex: C3H-A/A/FEMALE, Target Tissue: Type of Lesion: MAMMARY GLAND: TUMOR, Promoter: NONE USED", "value": "21/78 (27%), 9/77 (12%), 56%, p<0.05"},
      {"measurement": "tumour outcome (control, treated, inhibition, significance)", "setting": "Carcinogen: NONE USED, Dose [Inhibitor]: 450 MG/KG IN SESAME OIL 3/WK BEGINNING AT 5-6 WK OF AGE AND CONTINUING FOR DURATION OF STUDY (STUDY DURATION: 18 MO), Route [Inhibitor]: INTRAGASTRIC, Species: MOUSE, Strain/Sex: C3H-AVY/A/FEMALE, Target Tissue: Type of Lesion: MAMMARY GLAND: TUMOR, Promoter: NONE USED", "value": "19/27 (70%), 5/23 (22%), 68%, p<0.005"},
      {"measurement": "tumour outcome (control, treated, inhibition, significance)", "setting": "Carcinogen: NONE USED, Dose [Inhibitor]: 450 MG/KG IN SESAME OIL 3/WK FOR DURATION OF STUDY (STUDY DURATION: 9 MO), Route [Inhibitor]: INTRAGASTRIC, Species: MOUSE, Strain/Sex: C3H-AVY/A/FEMALE, Target Tissue: Type of Lesion: MAMMARY GLAND: TUMOR, Promoter: NONE USED", "value": "14/26 (54%), 0/24 (0%), 100%, not calculated"}
    ]}
  ]
}
